19 compounds from patent publication US20070049593A1 (priority 2004, published 2007) can be followed below.

This experiment addresses T1, HCV polymerase (Hepatitis C virus genotype 1b, UniProt P26663).
T1 construct: a region encoding NS5B (J Virol 1991 March, 65(3), 1105-13, 544 amino acids after deletion of 47 amino acids on the C-terminal); 6xHis (C); made in house; host or cells: Escherichia coli
The experiment in a line: biochemical. Details: species or system HCV BK strain. In short, it runs like this: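 His-tagged NS5B (BK strain, 47-aa C-terminal deletion, E. coli-expressed) at 0.5 μg/ml copied 5 μg/ml run-off RNA bearing the HCV 3′ UTR with 2 μM UTP plus [3H]UTP, 50 μM ATP/GTP, in pH 7.5 Tris with 5 mM MgCl2, 25 °C, 90 min. TCA-precipitated RNA was counted and IC50 calculated.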

pIC50: −log10 of the molar value. Where a name gives a salt, the structure may show the parent alone.

T1 sequence (P26663 2420-2963): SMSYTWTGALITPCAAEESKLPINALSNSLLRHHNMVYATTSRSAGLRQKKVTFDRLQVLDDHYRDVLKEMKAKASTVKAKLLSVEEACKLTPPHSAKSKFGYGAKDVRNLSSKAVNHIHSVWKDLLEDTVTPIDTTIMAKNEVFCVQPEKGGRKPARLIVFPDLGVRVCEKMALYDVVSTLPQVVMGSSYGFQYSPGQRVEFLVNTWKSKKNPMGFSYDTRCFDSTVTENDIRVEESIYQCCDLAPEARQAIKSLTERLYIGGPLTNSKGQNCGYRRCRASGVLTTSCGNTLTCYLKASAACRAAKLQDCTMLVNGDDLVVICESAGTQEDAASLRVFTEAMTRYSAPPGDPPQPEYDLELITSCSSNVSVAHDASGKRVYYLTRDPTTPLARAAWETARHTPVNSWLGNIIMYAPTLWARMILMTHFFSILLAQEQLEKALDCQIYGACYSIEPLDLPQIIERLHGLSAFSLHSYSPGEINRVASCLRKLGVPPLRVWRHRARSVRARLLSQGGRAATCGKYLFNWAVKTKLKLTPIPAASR

As to `CCN1CCC(CCN(CC)c2cccc3c2OCCn2c-3c(C3CCCCC3)c3ccc(C(=O)O)cc32)CC1` [Example 2-243, 12-cyclohexyl-4-{N-ethyl-N-[2-(1-ethylpiperidin-4-yl)ethyl]amino}-6,7-dihydro-5-oxa-7a-azadibenzo[a,e]azulene-9-carboxylic acid dihydrochloride], the pIC50 – broadly, the IC50 on a negative log10 scale, so that one unit is a factor of ten – was greater than 7.00.
Then `COCC1CCCN(CCN2CCn3c(c(C4CCCCC4)c4ccc(C(=O)O)cc43)-c3ccc(Cl)cc32)C1` (stereo not shown) [Example 1-293, 3-chloro-13-cyclohexyl-5-[2-(3-methoxymethylpiperidin-1-yl)ethyl]-6,7-dihydro-5H-benzo[5,6][1,4]diazepino[7,1-a]indole-10-carboxylic acid dihydrochloride], with greater than 7.00; and `O=C(O)c1ccc2c(c1)N(CCN1CCCCC1)CCn1c-2c(C2CCCCC2)c2ccc(C(=O)O)cc21` [Example 1-495, 13-cyclohexyl-5-[2-(piperidin-1-yl)ethyl]-6,7-dihydro-5H-benzo[5,6][1,4]diazepino[7,1-a]indole-3,10-dicarboxylic acid monohydrochloride], with greater than 7.00; and `CCN1CCC(CCN2CCn3c(c(C4CCCCC4)c4ccc(C(=O)O)cc43)-c3ccc(Cl)cc32)CC1` [Example 1-243, 3-chloro-13-cyclohexyl-5-[2-(1-ethylpiperidin-4-yl)ethyl]-6,7-dihydro-5H-benzo[5,6][1,4]diazepino[7,1-a]indole-10-carboxylic acid dihydrochloride], with greater than 7.00.
For `CC1CCN(CCN2CCn3c(c(C4CCCCC4)c4ccc(C(=O)O)cc43)-c3ccccc32)CC1` [Example 1-75, 13-cyclohexyl-5-[2-(4-methylpiperidin-1-yl)ethyl]-6,7-dihydro-5H-benzo[5,6][1,4]diazepino[7,1-a]indole-10-carboxylic acid dihydrochloride], the pIC50 is greater than 7.00.
For `COCC[C@@H]1CCCN(CCN2CCn3c(c(C4CCCCC4)c4ccc(C(=O)O)cc43)-c3ccc(OC)cc32)C1` [Example 1-445, 13-cyclohexyl-3-methoxy-5-{2-[(S)-3-(2-methoxyethyl)piperidin-1-yl]ethyl}-6,7-dihydro-5H-benzo[5,6][1,4]diazepino[7,1-a]indole-10-carboxylic acid dihydrochloride] the value was greater than 7.00.
Then `CC(C)C1CCN(CCN2CCn3c(c(C4CCCCC4)c4ccc(C(=O)O)cc43)-c3ccccc32)CC1` [Example 1-150, 13-cyclohexyl-5-[2-(4-isopropylpiperidin-1-yl)ethyl]-6,7-dihydro-5H-benzo[5,6][1,4]diazepino[7,1-a]indole-10-carboxylic acid dihydrochloride], with greater than 7.00; and `CN1CCCN(C(=O)CN2CCn3c(c(C4CCCCC4)c4ccc(C(=O)O)cc43)-c3ccccc32)CC1` [Example 1-54, 13-cyclohexyl-5-[2-(4-methyl-1,4-diazepan-1-yl)-2-oxoethyl]-6,7-dihydro-5H-benzo[5,6][1,4]diazepino[7,1-a]indole-10-carboxylic acid dihydrochloride], with greater than 7.00; and `Cc1ccc2c(c1)N(CCN1CCCC(C)C1)CCn1c-2c(C2CCCCC2)c2ccc(C(=O)O)cc21` (stereo not shown) [Example 1-253, 13-cyclohexyl-3-methyl-5-[2-(3-methylpiperidin-1-yl)ethyl]-6,7-dihydro-5H-benzo[5,6][1,4]diazepino[7,1-a]indole-10-carboxylic acid dihydrochloride], with greater than 7.00.
In the case of `CC(=O)N1CCN(CCN2CCn3c(c(C4CCCCC4)c4ccc(C(=O)O)cc43)-c3ccccc32)CC1` [Example 1-98, 5-[2-(4-acetylpiperazin-1-yl)ethyl]-13-cyclohexyl-6,7-dihydro-5H-benzo[5,6][1,4]diazepino[7,1-a]indole-10-carboxylic acid dihydrochloride], the pIC50 was greater than 7.00.
Compound `O=C(O)c1ccc2c(C3CCCCC3)c3n(c2c1)CCN(CCN1CCC2(CCCC2)CC1)c1ccccc1-3` [Example 1-184, 5-[2-(8-azaspiro[4.5]decan-8-yl)ethyl]-13-cyclohexyl-6,7-dihydro-5H-benzo[5,6][1,4]diazepino[7,1-a]indole-10-carboxylic acid dihydrochloride] showed a negative logarithm of the IC50 (pIC50) greater than 7.00.
In turn, `O=C(NCc1nc2ccccc2[nH]1)c1ccc2c(C3CCCCC3)c3n(c2c1)CCOc1ccccc1-3` [Example 2-252, N-(1H-benzimidazol-2-ylmethyl)-12-cyclohexyl-6,7-dihydro-5-oxa-7a-azadibenzo[a,e]azulene-9-carboxamide] gave a negative logarithm of the IC50 (pIC50) greater than 7.00.
In turn, `CCOc1ccc2c(c1)N(C)CCn1c-2c(C2CCCCC2)c2ccc(C(=O)NC3(C(=O)Nc4ccc(Cl)c(/C=C/C(=O)O)c4)CCC3)cc21` [Example 1-618, (E)-3-[2-chloro-5-({1-[(13-cyclohexyl-3-ethoxy-5-methyl-6,7-dihydro-5H-benzo[5,6][1,4]diazepino[7,1-a]indole-10-carbonyl)amino]cyclobutanecarbonyl}amino)phenyl]acrylic acid] had a negative logarithm of the IC50 (pIC50) greater than 7.00.
Then `CC(C)(C)OC(=O)N1CCCC(Oc2ccc3c(c2)OCCn2c-3c(C3CCCCC3)c3ccc(C(=O)O)cc32)C1` (stereo not shown) [Example 2-11, 3-(1-tert-butoxycarbonylpiperidin-3-yloxy)-12-cyclohexyl-6,7-dihydro-5-oxa-7a-azadibenzo[a,e]azulene-9-carboxylic acid], with greater than 7.00; and `COc1ccc2c(c1)OCCn1c-2c(C2CCCCC2)c2ccc(C(=O)NC3(C(=O)Nc4ccc(/C=C/C(=O)O)cc4)CCC3)nc21` [Example 7-10, (E)-3-[4-({1-[(12-cyclohexyl-3-methoxy-6,7-dihydro-5-oxa-7a,8-diazadibenzo[a,e]azulene-9-carbonyl)amino]cyclobutanecarbonyl}amino)phenyl]acrylic acid], with greater than 7.00.
`CC(C)(NC(=O)c1ccc2c(C3CCCCC3)c3n(c2c1)CCOc1ccccc1-3)C(=O)Nc1ccc(CO)cc1` [Example 2-195, N-[1-(4-hydroxymethylphenylcarbamoyl)-1-methylethyl]-12-cyclohexyl-6,7-dihydro-5-oxa-7a-azadibenzo[a,e]azulene-9-carboxamide] showed a pIC50 greater than 7.00.
Then `CS(=O)(=O)N1CCN(c2ccc(N3CCCC3=O)cc2COc2ccc3c(c2)OCCn2c-3c(C3CCCCC3)c3ccc(C(=O)O)cc32)CC1` [Example 2-13, 12-cyclohexyl-3-[2-(4-methanesulfonylpiperazin-1-yl)-5-(2-oxopyrrolidin-1-yl)benzyloxy]-6,7-dihydro-5-oxa-7a-azadibenzo[a,e]azulene-9-carboxylic acid monohydrochloride], with greater than 7.00.
`O=C(O)c1ccc2c(C3CCCCC3)c3n(c2c1)CCOc1ccccc1-3` [Example 9-2, 12-cyclohexyl-6,7-dihydro-5-oxa-7a-azadibenzo[a,e]azulene-9-carboxylic acid] gave a negative logarithm of the IC50 (pIC50) greater than 7.00.
For `COc1ccc2c(c1)OCCn1c-2c(C2CCCCC2)c2ccc(C(=O)N[C@@H](Cc3ccc(OCc4ccccc4)cc3)C3OCCO3)cc21` [Example 2-538, N—[(S)-2-(4-benzyloxyphenyl)-1-(1,3-dioxolan-2-yl)ethyl]-12-cyclohexyl-3-methoxy-6,7-dihydro-5-oxa-7a-azadibenzo[a,e]azulene-9-carboxamide], the negative-log IC50 (pIC50) was greater than 7.00.
